“And” between values parts separate entries of the source, which are not always exact repeats. Identical values can stand only once.
These compounds were tested on farnesyl transferase (FTase) (assay: Cytosolic Ras assay for measurement of farnesyl transferase activity (RAS Cell Assay)). Conditions: COS-7 cells, 24 hr treatment in 0.2% DMSO; cytosolic Ras by Western blot, Ras/actin ratio.
Type: cell-based, African green monkey
Description: Ras is a small GTP binding protein whose farnesylation and consequent membrane association can be reduced by inhibition of farnesyl transferase (Appels et al., Oncologist 10:565-578, 2005; Basso et al., J. Lipid Res. 47:15-31, 2006; Tamanoi, Trends Biochem. Sci. 18:349-353, 1993; each of which is incorporated herein by reference). […] Treatment with a compound of the invention reduces the farnesylation and membrane association of Ras, leading to accumulation of Ras in the cytosol of the cells. An assay was developed to monitor FTase activity, based on the amount of Ras present in the cytosolic fraction of COS-7 cells after FTI treatment. On day 0, COS-7 cells were passaged into 6-well plates at a density of 4×10^5 cells/well. Beginning on day 1, cells were treated with a compound of the invention in 0.2% DMSO for 24 hr. On day 2, cells were lysed by passage through a 25 gauge needle 10 times in 100 μl Buffer 1 (50 mM Tris, 140 mM NaCl, 2 mM EDTA, protease inhibitor cocktail, pH 7.4) and lysates were centrifuged at 16,000 g for 30 min to isolate the cytosolic fraction (supernatant). The cytosolic fraction was analyzed by Western blot using anti-Ras antibody and anti-actin antibody for loading control. Results were quantified based on densitometric analysis of Ras signal normalized to actin signal (Ras/actin ratio). Treatment with a compound of the invention increases the amount of Ras in the cytosolic fraction in a dose-dependent manner. Using this method, compounds of the invention were analyzed for their ability to inhibit FTase activity, in that an increase in the Ras/actin ratio indicates inhibition of FTase.

Compound	IC50
C#Cc1cccc(-c2cc(=O)n(C)c3ncc([C@@](O)(c4ccc(Cl)cc4)c4cncn4C)cc23)c1 [Compound 4a]	300 nM
COc1cccc(-c2cc(=O)n(C)c3ncc([C@@](N)(c4ccc(Cl)cc4)c4cncn4C)cc23)c1 [Compound 5b, 6-(amino(4-chlorophenyl)(1-methyl-1H-imidazol-5-yl)methyl)-4-(3-methoxyphenyl)-1-methyl-1,8-naphthyridin-2(1H)-one]	300 nM
COc1cccc(-c2cc(=O)n(C)c3ncc([C@](N)(c4ccc(Cl)cc4)c4cncn4C)cc23)c1 [Compound 5a, 6-(amino(4-chlorophenyl)(1-methyl-1H-imidazol-5-yl)methyl)-4-(3-methoxyphenyl)-1-methyl-1,8-naphthyridin-2(1H)-one]	3.9 nM and 2 nM
C#Cc1cccc(-c2cc(=O)n(C)c3ncc([C@](O)(c4ccc(Cl)cc4)c4cncn4C)cc23)c1 [Compound 4b]	0.57 nM and 0.54 nM

Other lines, results leading:

IC50	Compound
190 nM	COc1cccc(-c2cc(=O)n(C)c3ncc([C@@](O)(c4ccc(Cl)cc4)c4cncn4C)cc23)c1 [Compound 6b, 6-((4-chlorophenyl)(hydroxy)(1-methyl-1H-imidazol-5-yl)methyl)-4-(3-methoxyphenyl)-1-methyl-1,8-naphthyridin-2(1H)-one]
2.3 nM and 4.2 nM	COc1cccc(-c2cc(=O)n(C)c3ncc([C@](O)(c4ccc(Cl)cc4)c4cncn4C)cc23)c1 [Compound 6a, 6-((4-chlorophenyl)(hydroxy)(1-methyl-1H-imidazol-5-yl)methyl)-4-(3-methoxyphenyl)-1-methyl-1,8-naphthyridin-2(1H)-one]
